# Results: patent publication US6887882B2, “Pharmaceutical compositions comprising chelidonine or derivatives thereof” (priority 2002, dated 2005)
# Like-named read-outs stand apart in the source and are kept apart here.
# Key:
# hKv1.5 channel = molecular target: T1, hKv1.5 channel (Homo sapiens, UniProt P22460); test: Block of hKv1.5 channel currents expressed in Ltk-cells (whole cell patch clamp); type: cell-based; conditions: for Hill value: from concentration-response curves using the Hill equation; for IC50 / type of hKv1.5 block / effect on the hKv1.5 channel currents: hKv1.5 expressed in Ltk-cells; for IC50: steady-state current at end of +50 mV depolarizing pulse, holding -80 mV; for type of hKv1.5 block: FIGS. 1a to 1e; for effect on the hKv1.5 channel currents: FIGS. 1a to 1d
# T1 construct: expressed in transfected cells; host or cells: mouse Ltk- cells (pMSVneo vector, G418 selection)
# T1 sequence (P22460 whole entry): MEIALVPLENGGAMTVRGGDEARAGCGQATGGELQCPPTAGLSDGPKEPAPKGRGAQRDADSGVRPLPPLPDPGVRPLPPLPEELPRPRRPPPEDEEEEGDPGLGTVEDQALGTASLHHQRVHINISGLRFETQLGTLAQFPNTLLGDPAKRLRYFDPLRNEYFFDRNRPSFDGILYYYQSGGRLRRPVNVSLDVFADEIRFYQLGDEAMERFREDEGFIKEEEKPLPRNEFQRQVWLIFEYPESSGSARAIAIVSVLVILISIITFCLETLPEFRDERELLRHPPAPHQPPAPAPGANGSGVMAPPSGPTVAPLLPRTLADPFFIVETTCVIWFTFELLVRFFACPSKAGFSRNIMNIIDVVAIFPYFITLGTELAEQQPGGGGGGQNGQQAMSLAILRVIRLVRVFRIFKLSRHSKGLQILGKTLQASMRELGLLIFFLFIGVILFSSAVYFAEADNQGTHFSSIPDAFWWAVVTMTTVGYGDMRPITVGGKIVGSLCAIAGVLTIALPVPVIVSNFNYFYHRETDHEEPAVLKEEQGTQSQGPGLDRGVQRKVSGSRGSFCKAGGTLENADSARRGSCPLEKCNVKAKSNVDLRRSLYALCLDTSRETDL
# Method: Cell line selectively expressing a specific cardiac K^+ channel gene was prepared according to the method described in the thesis (Yang, et al., Inhibition of cardiac potassium currents by the vesnarinone analog OPC-18790: comparison with quinidine and dofetilide. J Pharmacol Exp Ther. 1997, 280: 1170-1175; Kwak, et al., Phosphorylation is required for alteration of Kv1.5 K^+ channel function by the Kvbeta 1.3 subunit. J Biol Chem 1999, 274: 25355-25361).
# First, cDNAs for human cardiac K^+ channel genes such as hKv 1.5 and HERG were subcloned into pMSVneo which contain dexamethasone-inducible murine mammary tumor virus promoter controlling transcription of the inserted cDNA and a gene conferring neomycin resistance driven by the SV40 early promotor. The cDNA-containing expression vector was transfected into mouse Ltk-cells with lipofectamine. After 24 hours, the cells selection with […] of G418 was performed for 2 weeks or until discrete foci formed. Individual foci were isolated, maintained in 0.25 μg/ml of G418, and screened by Norhtern analysis and electrophysiological analysis. Transfected cells were cultured in Dulbeco's modified Eagle medium (DMEM) supplemented with 10% horse serum and 0.25 μg/ml of G418, under 5% CO2. Transiently transfected cells were cultured in DMEM media supplemented with only 10% horse serum, differently from stable cell lines.
# Currents in human atrial myocytes and cell lines were recorded by using the whole cell configuration of the gigaohm-seal patch clamp techniques (Kwak, et al., Phosphorylation is required for alteration of Kv1.5 K^+ channel function by the Kvbeta 1.3 subunit. J Biol Chem 1999, 274: 25355-25361). First, electrical signals were amplified with a patch clamp amplifier (Axon Instruments, Axopatch-1D, Foster, USA). Currents were digitized by a signal converter (Digidata 1200, Axon Instruments) and stored on the hard disk of a computer. The micropipette with a resistance of 1˜2MΩ (Kimax-51, 1.5=14 1.8×10 mm) for current recording, was pulled out by a 2-stage pipette puller (Narishige, PP-83). The intracellular pipette-filling solution for whole cell mode contained 100 mM KCl, 10 mM HEPES, 5 mM K4BAPTA, 5 mM K2ATP and 1 mM MgCl2 (pH 7.2). The extracellular solution contained 130 mM NaCl, 4 mM KCl, 1.8 mM CaCl2, 1 mM MgCl2, 10 mM HEPES and 10 mM glucose (pH 7.35).
# The current traces were recorded with a depolarizing pulse of +50 mV from a holding potential of −80 mV, followed by a repolarizing pulse of −50 mV in the Ltk-cells. To observe the concentration-dependent block of hKv1.5 channel currents by each compound, steady-state currents taken at the end of the depolarizing pulse of +50 mV were normalized to the control obtained in the absence of each compound
# FIG. 1e is concentration-response curves showing the relative steady-state currents obtained at the end of the depolarizing pulse against the concentration of each compound. Data were fitted with a Hill equation.
# IC50 values (50% inhibitory concentration, μM) of compounds 1˜14 on the hKv1.5 channel currents were determined, and Hill values were calculated from the concentration-response curves of the respective compounds using the Hill equation.
# rabbit atrial tissue = test: Frequency-dependent effects on action potentials of rabbit atrial tissue (APD90); type: cell-based; conditions: varied stimulus frequencies, FIG. 5c; compared to chelidonine
# Method: Action potentials in rabbit atrial tissue were recorded according to the method described in thesis by Kwak, et al. (A newly synthesized benzopyran derivatives, activates the cardiac ATP-sensitive K^+ channel. J Pharmacol Exp Ther 1995, 275: 807-812).
# Male New Zealand white rabbits weighing about 2 kg were stunned with a blow on the head and hearts were rapidly excised and transferred to a dissection bath filled with Tyrode's solution saturated with 97% O2 and 3% CO2 gas mixture and each dissected tissue was mounted horizontally in a narrow channel of a tissue chamber and continuously superfused with the Tyrode's solution at 37° C. The action potentials were elicited by stimulating the cardiac cells with square pulses (1˜5 Hz, 1-ms duration, 20-30% above threshold voltage) by a stimulator. […] Tracings on the oscilloscope screen were photographed on a 35-mm film and also recorded on a physiograph (RS 3400, Gould, Cleveland, Ohio). APD90 was used for the comparison of action potential durations. APD90 represents the action potential duration at 90% repolarization, relative to the action potential duration at maximum 100% depolarization. Images on the oscilloscope screen were captured on Polaroid camera.
# We tested whether the effect of chelidonine on action potentials of rabbit atrial myocytes are frequency-dependent or not.
# The relative action potential durations were normalized to the APD90 value in the absence of chelidonine at each frequency. At the stimulus frequency of 1, 2, 3, 4 and 5 Hz, 1 μM chelidonine increased APD90 by 13.0±8.1% (n=5), 14.5±7.9% (n=5), 16.5±2.2% (n=5) 28.2±0.4% (n=5) or 33.0±0.3 1% (n=5) of the control APD90 in the absence of chelidonine at each frequency, respectively.
# mouse = conditions: in vivo, cited from earlier work
compound,measurement,setting,value
"CN1Cc2c(ccc3c2OCO3)[C@H]2CCc3cc4c(cc3[C@H]21)OCO4 [Compound 8, [5bR-(5bα,6β,12bα)]-5b,6,7,12b,13, 14-hexahydro-13-methyl[1,3] benzodioxolo[5,6c]-1,3-dioxolo[4,5-i]phenanthridine]",Hill value,hKv1.5 channel,1.38
same,IC50,hKv1.5 channel,65.6 ± 4.2 µM
"CN1Cc2c(ccc3c2OCO3)C2=CCc3cc4c(cc3[C@H]21)OCO4 [Compound 7, (12bR)-7,12b,13,14-tetrahydro-13-methyl[1,3]-benzodioxolo[5,6c]-1,3-dioxolo[4,5-i]phenanthridine]",Hill value,hKv1.5 channel,0.98
same,IC50,hKv1.5 channel,19.9 ± 3.5 µM
"CN1Cc2c(ccc3c2OCO3)[C@H]2[C@@H](OS(C)(=O)=O)Cc3cc4c(cc3[C@H]21)OCO4 [Compound 10, {[5bR-(5bα,6β,12bα)]-5b,6,7,12b,13, 14-hexahydro-13-methyl[1,3]benzodioxolo[5,6c]-1,3-dioxolo[4,5-i]phenanthridin-6-yl}-methanesulfonate]",Hill value,hKv1.5 channel,1.20
same,IC50,hKv1.5 channel,31.3 ± 3.5 µM
"CO[C@H]1Cc2cc3c(cc2[C@@H]2[C@H]1c1ccc4c(c1CN2C)OCO4)OCO3 [Compound 2, [5bR-(5bα,6β,12bα)]-5b,6,7,12b,13, 14-hexahydro-6-methoxy-13-methyl[1,3]-benzodioxolo[5,6c]-1,3-dioxolo[4,5-i]phenanthridine]",Hill value,hKv1.5 channel,1.29
same,IC50,hKv1.5 channel,45.2 ± 4.1 µM
"CN1Cc2c(ccc3c2OCO3)[C@@]2(C)[C@@H](O)Cc3cc4c(cc3[C@@H]12)OCO4 [Compound 13, [5bR-(5bα,6β,12bα)]-5b,6,7,12b,13, 14-hexahydro-5b,13-dimethyl[1,3]-benzodioxolo[5,6c]-1,3-dioxolo[4,5-i] phenanthridin-6-ol]",Hill value,hKv1.5 channel,1.34
"Cc1ccc(S(=O)(=O)O[C@H]2Cc3cc4c(cc3[C@@H]3[C@H]2c2ccc5c(c2CN3C)OCO5)OCO4)cc1 [Compound 11, {[5bR-(5bα,6β,12bα)]-5b,6,7,12b,13, 14-hexahydro-13-methyl[1,3]benzodioxolo[5,6c]-1,3-dioxolo[4,5-i]phenanthridin-6-yl}-4-methylbenzenesulfonate]",Hill value,hKv1.5 channel,1.19
same,IC50,hKv1.5 channel,29.6 ± 3.7 µM
"CN1Cc2c(ccc3c2OCO3)[C@H]2[C@@H](OC(N)=O)Cc3cc4c(cc3[C@H]21)OCO4 [Compound 12, {[5bR-(5bα,6β,12bα)]-5b,6,7,12b,13, 14-hexahydro-13-methyl[1,3]benzodioxolo[5,6c]-1,3-dioxolo[4,5-i]phenanthridin-6-yl}-carbamate]",Hill value,hKv1.5 channel,1.12
same,IC50,hKv1.5 channel,1.9 ± 1 µM
"CN1Cc2c(ccc3c2OCO3)[C@H]2[C@@H](OC(=O)c3ccccc3)Cc3cc4c(cc3[C@H]21)OCO4 [Compound 5, {[5bR-(5bα,6β,12bα)]-5b,6,7,12b,13, 14-hexahydro-13-methyl[1,3]benzodioxolo[5,6c]-1,3-dioxolo[4,5-i]phenanthridin-6-yl}-benzoate]",Hill value,hKv1.5 channel,1.18
same,type of hKv1.5 block,hKv1.5 channel,showed the tonic blocking effects
same,effect on the hKv1.5 channel currents,hKv1.5 channel,concentration-dependent inhibitory effects
same,IC50,hKv1.5 channel,29.3 ± 4.2 µM
same,action potential duration prolongation,rabbit atrial tissue,"increased the action potential durations in the similar manner as chelidonine, but to a lesser extent"
"CN1Cc2c(ccc3c2OCO3)[C@H]2[C@@H](OCc3ccccc3)Cc3cc4c(cc3[C@H]21)OCO4 [Compound 3, [5bR-(5bα,6β,12bα)]-5b,6,7,12b,13, 14-hexahydro-6-benzyloxy-13-methyl[1,3]benzodioxolo[5,6c]-1,3-dioxolo[4,5-i]phenanthridine]",Hill value,hKv1.5 channel,1.37
same,IC50,hKv1.5 channel,59.3 ± 3 µM
"CN1Cc2c(ccc3c2OCO3)-c2ccc3cc4c(cc3c21)OCO4 [Compound 6, (12bR)-13,14-dihydro-13-methyl [1,3]benzodioxolo[5,6c]-1,3-dioxolo[4,5-i]phenanthridine]",Hill value,hKv1.5 channel,1.09
same,IC50,hKv1.5 channel,26.4 ± 3.9 µM
"C[n+]1cc2c3c(ccc2c2ccc4cc5c(cc4c21)OCO5)OCO3 [Compound 14, 13-methyl[1,3]benzodioxolo[5,6c]-1,3-dioxolo[4,5-i]phenanthridinium]",Hill value,hKv1.5 channel,1.39
same,type of hKv1.5 block,hKv1.5 channel,slowed the channel activation
same,effect on the hKv1.5 channel currents,hKv1.5 channel,concentration-dependent inhibitory effects
same,IC50,hKv1.5 channel,13 ± 3.8 µM
same,action potential duration prolongation,rabbit atrial tissue,"increased the action potential durations in the similar manner as chelidonine, but to a lesser extent"
same,toxicity,mouse; iv,15.9 mg/kg
same,toxicity,mouse; sc,102.0 mg/kg
"CN1Cc2c(ccc3c2OCO3)[C@H]2[C@@H](OP(=O)(Oc3ccccc3)Oc3ccccc3)Cc3cc4c(cc3[C@H]21)OCO4 [Compound 9, {[5bR-(5bα,6β,12bα)]-5b,6,7,12b,13, 14-hexahydro-13-methyl[1,3]benzodioxolo[5,6c]-1,3-dioxolo[4,5-i]phenanthridin-6-yl}-diphenylphosphate]",Hill value,hKv1.5 channel,1.26
"CC(=O)O[C@H]1Cc2cc3c(cc2[C@@H]2[C@H]1c1ccc4c(c1CN2C)OCO4)OCO3 [Compound 4, {[5bR-(5bα,6β,12bα)]-5b,6,7,12b,13, 14-hexahydro-13-methyl[1,3]benzodioxolo[5,6c]-1,3-dioxolo[4,5-i]phenanthridin-6-yl}-acetate]",Hill value,hKv1.5 channel,1.34
same,type of hKv1.5 block,hKv1.5 channel,predominantly blocked the open ion channels
same,effect on the hKv1.5 channel currents,hKv1.5 channel,concentration-dependent inhibitory effects
same,IC50,hKv1.5 channel,11.3 ± 3.3 µM
same,action potential duration prolongation,rabbit atrial tissue,"increased the action potential durations in the similar manner as chelidonine, but to a lesser extent"
